Measurements taken from the supplement of paper PMC4862054.

Legend:
Conditions in all cases: incubation time: 72 h
[1] = tested on: CAL-85-1; assay: drug sensitivity score (DSS), CellTiter-Glo (DSS (AUC-based score)); higher = stronger drug effect (viability inhibition or cytotoxicity); extreme values may be limits of the assay
Procedure, shortened: (§1)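 Normalisation on every plate relied on 0.1 % DMSO and a positive kill control. The plates, 384-well format, held compound at 5 concentrations 10-fold apart across a compound-specific 10,000-fold range, and breast cancer cell lines in 20 µl suspension were incubated on them for 72 h before CellTox Green and then CellTiter-Glo readings. The drug sensitivity score derives from the area under the fitted dose-response curve.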

[2] = tested on: MCF-10A; assay: as above
Procedure, shortened: as §1

[3] = tested on: CAL-148; assay: as above
Procedure, shortened: as §1

[4] = tested on: HCC1143; assay: as above
Procedure, shortened: as §1

[5] = tested on: BT-549; assay: as above
Procedure, shortened: as §1

[6] = tested on: CAL-51; assay: as above
Procedure, shortened: as §1

[7] = tested on: MDA-MB-436; assay: as above
Procedure, shortened: as §1

[8] = tested on: HCC1599; assay: as above
Procedure, shortened: as §1

[9] = tested on: HDQ-P1; assay: normalised viability (% of control), CellTiter-Blue; higher = more viable cells (about 100 = DMSO control)
Procedure, shortened: (§2)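 The reported figure is normalised viability at a single listed concentration of the series. Breast cancer cell lines (20 µl suspension) went onto 384-well plates holding compound in 5 µl medium for 72 h. CellTiter-Blue (2.5 µl, 2 h, 37 °C) was read by fluorescence at 560/590 nm, and each plate was scaled to vehicle at 100 and a positive kill control at 0.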

[10] = tested on: CAL-85-1; assay: as above
Procedure, shortened: as §2

[11] = tested on: MDA-MB-231; assay: as above
Procedure, shortened: as §2

[12] = tested on: MFM-223; assay: as above
Procedure, shortened: as §2

[13] = tested on: CAL-148; assay: as above
Procedure, shortened: as §2

[14] = tested on: CAL-120; assay: as above
Procedure, shortened: as §2

[15] = tested on: BT-474; assay: as above
Procedure, shortened: as §2

[16] = tested on: HCC1143; assay: as above
Procedure, shortened: as §2

[17] = tested on: Hs578T; assay: as above
Procedure, shortened: as §2

[18] = tested on: MDA-MB-453; assay: as above
Procedure, shortened: as §2

[19] = tested on: BT-549; assay: as above
Procedure, shortened: as §2

[20] = tested on: MDA-MB-468; assay: as above
Procedure, shortened: as §2

[21] = tested on: SK-BR-3; assay: as above
Procedure, shortened: as §2

[22] = tested on: CAL-51; assay: as above
Procedure, shortened: as §2

[23] = tested on: MDA-MB-436; assay: as above
Procedure, shortened: as §2

[24] = tested on: HCC1599; assay: as above
Procedure, shortened: as §2

Structure (SMILES): CCn1c(-c2nonc2N)nc2cnc(Oc3cccc(NC(=O)c4ccc(OCCN5CCOCC5)cc4)c3)cc21
- drug sensitivity score [1]: 0
- drug sensitivity score [2]: 6.73
- drug sensitivity score [3]: 2.07
- drug sensitivity score [4]: 0
- drug sensitivity score [5]: 5.62
- drug sensitivity score [6]: 4.84
- drug sensitivity score [7]: 1.31
- drug sensitivity score [8]: 0

Structure (SMILES): Cc1cc(Nc2cc(CN3CCOCC3)c3nc(C)c(Cc4ccc(Cl)cc4F)n3n2)n[nH]1
- normalised viability ([9]; 3 nM): 89.9%
- normalised viability ([9]; 30 nM): 82%
- normalised viability ([9]; 100 nM): 82.4%
- normalised viability ([10]; 3 nM): 87.2%
- normalised viability ([10]; 30 nM): 83.3%
- normalised viability ([10]; 100 nM): 93.1%
- normalised viability ([11]; 10 nM): 102%
- normalised viability ([11]; 1000 nM): 83.6%
- normalised viability ([11]; 10000 nM): 18.7%
- normalised viability ([12]; 10 nM): 102%
- normalised viability ([12]; 1000 nM): 50.6%
- normalised viability ([12]; 10000 nM): 44.8%
- normalised viability ([13]; 3 nM): 84.1%
- normalised viability ([13]; 30 nM): 87.7%
- normalised viability ([13]; 100 nM): 88.2%
- normalised viability ([14]; 10 nM): 83.7%
- normalised viability ([14]; 1000 nM): 57.6%
- normalised viability ([14]; 10000 nM): 14.8%
- normalised viability ([15]; 10 nM): 109%
- normalised viability ([15]; 1000 nM): 96.6%
- normalised viability ([15]; 10000 nM): 49.7%
- normalised viability ([16]; 10 nM): 78.1%
- normalised viability ([16]; 1000 nM): 58.9%
- normalised viability ([16]; 10000 nM): 35.5%
- normalised viability ([17]; 10 nM): 110%
- normalised viability ([17]; 1000 nM): 81.6%
- normalised viability ([17]; 10000 nM): 2.66%
- normalised viability ([18]; 3 nM): 90.4%
- normalised viability ([18]; 30 nM): 101%
- normalised viability ([18]; 100 nM): 82.8%
- normalised viability ([19]; 10 nM): 97.8%
- normalised viability ([19]; 1000 nM): 78.8%
- normalised viability ([19]; 10000 nM): 9.99%
- normalised viability ([20]; 10 nM): 103%
- normalised viability ([20]; 1000 nM): 61.4%
- normalised viability ([20]; 10000 nM): 7.11%
- normalised viability ([21]; 10 nM): 102%
- normalised viability ([21]; 1000 nM): 70.9%
- normalised viability ([21]; 10000 nM): 30.5%
- normalised viability ([22]; 3 nM): 97.1%
- normalised viability ([22]; 30 nM): 95.2%
- normalised viability ([22]; 100 nM): 94.2%
- normalised viability ([23]; 10 nM): 109%
- normalised viability ([23]; 1000 nM): 71.1%
- normalised viability ([23]; 10000 nM): 36.8%
- normalised viability ([24]; 10 nM): 109%
- normalised viability ([24]; 1000 nM): 90.5%
- normalised viability ([24]; 10000 nM): 92%

Structure (SMILES): N#Cc1ccc(COC[C@H]2O[C@@H](n3c(NCc4ccc(Cl)c(Cl)c4)nc4c(N)ncnc43)[C@H](O)[C@@H]2O)cc1
- drug sensitivity score [1]: 0
- drug sensitivity score [2]: 1.78
- drug sensitivity score [3]: 0
- drug sensitivity score [4]: 1.09
- drug sensitivity score [5]: 3.44
- drug sensitivity score [6]: 0
- drug sensitivity score [7]: 0
- drug sensitivity score [8]: 0
- normalised viability ([9]; 3 nM): 115%
- normalised viability ([9]; 30 nM): 104%
- normalised viability ([9]; 100 nM): 105%
- normalised viability ([10]; 3 nM): 108%
- normalised viability ([10]; 30 nM): 107%
- normalised viability ([10]; 100 nM): 110%
- normalised viability ([11]; 10 nM): 128%
- normalised viability ([11]; 1000 nM): 77.3%
- normalised viability ([11]; 10000 nM): 57.2%
- normalised viability ([12]; 10 nM): 93%
- normalised viability ([12]; 1000 nM): 101%
- normalised viability ([12]; 10000 nM): 93.6%
- normalised viability ([13]; 3 nM): 101%
- normalised viability ([13]; 30 nM): 105%
- normalised viability ([13]; 100 nM): 99.3%
- normalised viability ([14]; 10 nM): 103%
- normalised viability ([14]; 1000 nM): 110%
- normalised viability ([14]; 10000 nM): 62.4%
- normalised viability ([15]; 10 nM): 135%
- normalised viability ([15]; 1000 nM): 95%
- normalised viability ([15]; 10000 nM): 89.5%
- normalised viability ([16]; 10 nM): 90.1%
- normalised viability ([16]; 1000 nM): 87.4%
- normalised viability ([16]; 10000 nM): 60.8%
- normalised viability ([17]; 10 nM): 104%
- normalised viability ([17]; 1000 nM): 99.3%
- normalised viability ([17]; 10000 nM): 73.8%
- normalised viability ([18]; 3 nM): 124%
- normalised viability ([18]; 30 nM): 95.7%
- normalised viability ([18]; 100 nM): 91.4%
- normalised viability ([19]; 10 nM): 87.7%
- normalised viability ([19]; 1000 nM): 84%
- normalised viability ([19]; 10000 nM): 34.4%
- normalised viability ([20]; 10 nM): 108%
- normalised viability ([20]; 1000 nM): 89.7%
- normalised viability ([20]; 10000 nM): 68.7%
- normalised viability ([21]; 10 nM): 115%
- normalised viability ([21]; 1000 nM): 102%
- normalised viability ([21]; 10000 nM): 37.3%
- normalised viability ([22]; 3 nM): 118%
- normalised viability ([22]; 30 nM): 110%
- normalised viability ([22]; 100 nM): 110%
- normalised viability ([23]; 10 nM): 95.2%
- normalised viability ([23]; 1000 nM): 84.8%
- normalised viability ([23]; 10000 nM): 50.9%
- normalised viability ([24]; 10 nM): 97.3%
- normalised viability ([24]; 1000 nM): 65.6%
- normalised viability ([24]; 10000 nM): 22%

Structure (SMILES): COc1cc(O)c2c(c1)/C=C/C[C@H](O)[C@H](O)C(=O)/C=C\C[C@H](C)OC2=O [(5Z)-7-Oxozeaenol]
- drug sensitivity score [1]: 12.4
- drug sensitivity score [2]: 9.62
- drug sensitivity score [3]: 7.16
- drug sensitivity score [4]: 2
- drug sensitivity score [5]: 14
- drug sensitivity score [6]: 4.7
- drug sensitivity score [7]: 7.08
- drug sensitivity score [8]: 3.26

Structure (SMILES): COc1cc(OC2CCN(C)CC2)ccc1Nc1ncc2c(n1)n(C1CCCC1)c(=O)n2C [AZ 3146]
- drug sensitivity score [1]: 2.31
- drug sensitivity score [2]: 2.22
- drug sensitivity score [3]: 0
- drug sensitivity score [4]: 0
- drug sensitivity score [5]: 0
- drug sensitivity score [6]: 5.98
- drug sensitivity score [7]: 0
- drug sensitivity score [8]: 1.58
- normalised viability ([9]; 3 nM): 80.8%
- normalised viability ([9]; 30 nM): 100%
- normalised viability ([9]; 100 nM): 118%
- normalised viability ([10]; 3 nM): 111%
- normalised viability ([10]; 30 nM): 109%
- normalised viability ([10]; 100 nM): 102%
- normalised viability ([11]; 10 nM): 96.5%
- normalised viability ([11]; 1000 nM): 82.3%
- normalised viability ([11]; 10000 nM): 45.8%
- normalised viability ([12]; 10 nM): 102%
- normalised viability ([12]; 1000 nM): 102%
- normalised viability ([12]; 10000 nM): 84.4%
- normalised viability ([13]; 3 nM): 111%
- normalised viability ([13]; 30 nM): 102%
- normalised viability ([13]; 100 nM): 115%
- normalised viability ([14]; 10 nM): 115%
- normalised viability ([14]; 1000 nM): 109%
- normalised viability ([14]; 10000 nM): 76.5%
- normalised viability ([15]; 10 nM): 110%
- normalised viability ([15]; 1000 nM): 96.2%
- normalised viability ([15]; 10000 nM): 122%
- normalised viability ([16]; 10 nM): 132%
- normalised viability ([16]; 1000 nM): 126%
- normalised viability ([16]; 10000 nM): 95.3%
- normalised viability ([17]; 10 nM): 111%
- normalised viability ([17]; 1000 nM): 109%
- normalised viability ([17]; 10000 nM): 80.1%
- normalised viability ([18]; 3 nM): 96%
- normalised viability ([18]; 30 nM): 97.7%
- normalised viability ([18]; 100 nM): 85.3%
- normalised viability ([19]; 10 nM): 75.4%
- normalised viability ([19]; 1000 nM): 89.5%
- normalised viability ([19]; 10000 nM): 62%
- normalised viability ([20]; 10 nM): 109%
- normalised viability ([20]; 1000 nM): 103%
- normalised viability ([20]; 10000 nM): 53.3%
- normalised viability ([21]; 10 nM): 104%
- normalised viability ([21]; 1000 nM): 86.8%
- normalised viability ([21]; 10000 nM): 74.5%
- normalised viability ([22]; 3 nM): 97.5%
- normalised viability ([22]; 30 nM): 88.7%
- normalised viability ([22]; 100 nM): 87.8%
- normalised viability ([23]; 10 nM): 102%
- normalised viability ([23]; 1000 nM): 94.4%
- normalised viability ([23]; 10000 nM): 85.6%
- normalised viability ([24]; 10 nM): 107%
- normalised viability ([24]; 1000 nM): 121%
- normalised viability ([24]; 10000 nM): 111%
